Data as given in patent US20210395312A1, “QUANTUM CONFINED PEPTIDE ASSEMBLIES AND USES THEREOF” (Ramot at Tel-Aviv University Ltd., priority 2019, published 2021).
Values joined by “and” are separate entries in the source; they are usually repeats but may differ in a detail not shown here. Equal values may be shown once.

Experiments:
Format in all cases: physicochemical
[1] = Fluorescence characterization (excitation/emission) of self-assemblies; settings: for Emission (λEm): maximal emission; for Emission (λEm) / Excitation (λEx) / fluorescent emission: MeOH; for Excitation (λEx): maximal excitation; for fluorescent emission: excited at 370 nm
Protocol: UV-Visible fluorescence characterization: 600 μL sample solution was pipetted into a 1.0 cm path-length quartz cuvette, and the spectrum was collected using a FluoroMax-4 Spectrofluorometer (Horiba Jobin Yvon, Kyoto, Japan) at ambient temperature. For molecular fluorescence of some experiments, the emission wavelength was set at 350 nm with a slit of 3 nm, and the excitation wavelength was set at 200-330 nm with a slit of 3 nm. For self-assembly fluorescence, the excitation wavelength was set at 370 nm with a slit of 3 nm, and the emission wavelength was set at 380-700 nm with a slit of 3 nm. For excitation-dependent maximal emission evolution experiment, the excitation wavelengths were set at 300-450 nm with a slit of 3 nm, and the emission wavelengths were set at 380-600 nm with a slit of 3 nm. According to the samples, anhydrous MeOH or MeOH solution of ZnCl2 (CuCl2) was used as background and subtracted. At least five measurements were performed and averaged for accuracy. Emission and excitation wavelengths, slit dimensions and background solutions were adjusted per the measured sample and are as indicated below. […]
(§1) Fluorescence spectroscopy and quantum yield (QY) measurement: 600 μL sample solution was pipetted into a 1.0 cm path-length quartz cuvette, and the spectrum was collected using a FluoroMax-4 Spectrofluorometer (Horiba Jobin Yvon, Kyoto, Japan) at ambient temperature. The excitation and emission wavelengths were set at 300-500 nm and 400-650 nm, respectively, with a slit of 2 nm. Absolute fluorescence QY measurements were performed using Quanta-Phi integrating sphere connected to Fluoromex-4.

[2] = Fluorescent decay measurement (lifetime); settings: MeOH; for Lifetime (τ): at maximal excitation and emission
Protocol: Fluorescent decay measurement (lifetime): 600 μL sample solution was pipetted into a 1.0 cm path-length quartz cuvette, and the spectrum was collected using a FluoroMax-4 Spectrofluorometer (Horiba Jobin Yvon, Kyoto, Japan) equipped with a NanoLED laser excitation source at ambient temperature. The wavelength was set as the maximum excitation and emission of the samples, and a LUDOX sample (silica beads, 2 μm) was used as the prompt. The lifetime was determined by fitting the fluorescent decay data from the DAS6 Analysis software (Horiba Jobin Yvon, Kyoto, Japan). Three measurements were performed and averaged for accuracy.

[3] = Morphology and size of self-assemblies (AFM, DLS, TEM); settings: self-assemblies in MeOH
Protocol: Dynamic light scattering (DLS): 850 μL of the sample solution was introduced into a DTS1070 folded capillary cell (Malvern, Worcestershire, U.K.), and the size was measured using a Zetasizer Nano ZS analyzer (Malvern Instruments, Malvern, UK) at 25.0° C. and a backscatter detector (173°). Three measurements were performed and averaged for accuracy.
Atomic force microscopy (AFM): 4 μL of sample solution was dropped onto a freshly cleaved mica surface and let it dry. The mica was then rinsed with water and purged dried gently with nitrogen. A topographic image was recorded under a NanoWizard 3 BioScience AFM (JPK, Berlin, Germany) in the tapping mode at ambient temperature, with 512×512 pixel resolution and a scanning speed of 1.0 Hz.
Transmission electron microscopy (TEM): A carbon-coated copper grid was placed on a 10 μL cyclo-dipeptide droplet for 1 minute and then blotted. Next, the washed grid was placed on a 10 μL droplet containing 4% (w/v) uranyl acetate solution for 1 min and then blotted. Samples were examined using Tecnai G2 Spirit TEM (FEI) at 80 kV.
Atomic force microscopy (AFM): 5 μL of sample solution was dropped onto a freshly cleaved mica surface and dried by N2 purge (99.99%). The mica was then rinsed with water and gently purge dried with nitrogen. A topographic image was recorded under a Dimension icon AFM (Bruker) in the tapping mode at ambient temperature, with a 512×512-pixel resolution and a scanning speed of 1.0 Hz. Nanoscope Analysis software was used for data collection and analysis.
For cyclo-dipeptide-Zn structures, aliquots (10 μL) of cyclo-dipeptide-Zn were added into a glow discharge copper grid (400 mesh) coated with a thin carbon film for 2 minutes. Excess solution was then removed, and the grid was washed three times with deionized water. TEM images were viewed using a FEI Tecnai F20 electron microscope operating at 80 kV.

[4] = Quantum yield (QY) measurement; settings: MeOH; excitation set at 350 nm if maximal excitation less than 350 nm
Protocol: Quantum yield (QY) measurement: 5 mL sample solution was pipetted into a 1.0 cm path-length quartz cuvette with a tube (Hellma, Müllheim, Germany), and the absolute quantum yield was measured on an absolute PL quantum yield spectrometer C11347 (Hamamatsu Photonics, Shizuoka, Japan) at ambient temperature. The relevant blanks, namely anhydrous MeOH, MeOH solutions of ZnCl2 (CuCl2), or DMSO solution of ZnCl2, were used as background and subtracted. At least five measurements were performed and averaged for accuracy.
as §1

[5] = Fluorescence photostability
Protocol: Fluorescence photostability: Fluorescence emission spectra were measured at different time points (1 day, 7 days and 14 days). The excitation and emission slit widths were each set at 5 nm. Three measurements were performed and averaged for accuracy.

[6] = Fluorescence photobleaching; settings: continuous irradiation for 600 seconds
Protocol: The fluorescence emission data was collected at 80 points per second for 10 minutes. The excitation and emission slit widths were each set at 5 nm. At least three measurements were performed and averaged for accuracy.

[7] = emission band 425, excitation 340 nm
[8] = emission band 520, excitation 420 nm
[9] = emission band 380 (strong), excitation 320 nm
[10] = emission band 465 (weak), excitation 370 nm

Compound | Emission (λEm) [1] | Excitation (λEx) [1] | Lifetime (τ) [2] | Structures [3] | other results
histidine-tyrosine cyclic dipeptide [cyclo-HY] | 390 nm | 310 nm | 0.003 ± 0.034 ns | nanofibers | –
cyclo-dityrosine [cyclo-YY] | no detectable emissions | – | – | platelets | emission ([1]; DMSO, Ex 450 nm (cyclo-FF), Ex 480 nm (cyclo-YY)): 570 nm
phenylalanine-histidine cyclic dipeptide [cyclo-HF] | 410 nm | 340 nm | 3.29 ± 0.03 ns | nanofibers | –
phenylalanine-tyrosine cyclic dipeptide [cyclo-FY] | 430 nm | 350 nm | 0.022 ± 0.003 ns | nanofibers | QY [4]: 3%
tryptophan-tryptophan cyclic dipeptide [cyclo-WW] | – | 370 nm | 5.45 ± 0.03 ns | nanospheres | fluorescent emission [1]: 425 nm and 520 nm; Emission (λEm) ([1]; emission band 440 (strong), excitation 370 nm): 440 (strong) nm; fluorescence lifetime ([2]; excitation 370 nm): 5.6 ns
CC1(C)C(/C=C/C=C/C=C/C=C2\N(CCCCS(=O)(=O)O)c3ccc4ccccc4c3C2(C)C)=[N+](CCCCS(=O)(=O)[O-])c2ccc3ccccc3c21 [ICG, indocyanine green] | – | – | – | – | fluorescence after exposure to natural light (photostability) ([5]; after 1 day): lost all fluorescence; photoluminescence after continuous irradiation (photobleaching) [6]: significant fluorescence decay
cyclo-dihistidine [cyclo-HH] | – | – | – | nanofibers | fluorescent emission [1]: 430 nm; Emission (λEm) [1, 7]: 425 nm; Emission (λEm) [1, 8]: 520 nm; Excitation (λEx) [1, 7]: 340 nm; Excitation (λEx) [1, 8]: 420 nm; QY [4]: 3%; Lifetime (τ) [2, 7]: 4.89 ± 0.02 ns; Lifetime (τ) [2, 8]: 6.48 ± 0.04 ns
cyanine 5.5 [Cy5.5] | – | – | – | – | fluorescence lost (photostability) ([5]; after 1 week): 20%; photoluminescence after continuous irradiation (photobleaching) [6]: significant fluorescence decay
tyrosine-tryptophan cyclic dipeptide [cyclo-WY] | 400 nm | 320 nm | 0.232 ± 0.004 ns | nanofibers | –
tryptophan-histidine cyclic dipeptide [cyclo-WH] | – | – | – | nanofibers | Emission (λEm) [1, 9]: 380 (strong) nm; Emission (λEm) [1, 10]: 465 (weak) nm; Excitation (λEx) [1, 9]: 320 nm; Excitation (λEx) [1, 10]: 370 nm
